Counter-ions that a name gives are not always drawn.
How the values were obtained:
[1] = biological target: T1, MC1 receptor (Mus musculus, UniProt Q01727); experiment: Affinity for the MC1-receptor, 125I-NDP-αMSH binding assay; conditions: B16 mouse melanoma cells endogenously expressing mouse MC1, displacement of 125I-NDP-MSH, nb = non-binding, i.e. no affinity; for Ki: read-out: Affinity for MC-receptors, Ki, MC1
T1 construct: B16 mouse melanoma cells were used, which endogenously express the (mouse) MC1 receptor; endogenous in cells; host or cells: B16 mouse melanoma cells
Procedure: Test 1. Affinity for the MC1-receptor
The binding assay was carried out essentially as described by Lunec et al., Melanoma Res. 1992; 2; 5-12 using I^125-NDP-αMSH as ligand.
(§1) Essentially, the affinity of the compounds for the different melanocortin receptors were determined by using either insect cells (Sf9) or COS cells, which were transfected with recombinant human MC3, MC4 or MC5 receptors. For the determination of the affinity for the MC1 receptor, B16 mouse melanoma cells were used, which endogenously express the (mouse) MC1 receptor.
(§2) The compounds were tested at different concentrations for their ability to displace a ^125I-labelled NDP-MSH from the respective receptor. Incubation was performed in 96-well plates, using 50,000 cells/well (Sf9 or COS cells) up to 200,000 cells/well (mouse melanoma cells).
(§3) The test compound or standard (NDP-MSH) was added in an appropriate concentration (generally between 10^−4 M and 10^−12 M) together with labelled tracer (approx. 50,000 cpm/well) and incubated for 2 hours (at room temperature for Sf9 cells and at +37° C. for COS cells and mouse melanoma cells).
(§4) After the incubation, the cells were washed twice to get rid of the excess tracer and compound, and the cells were lysed with 0.1 M NaOH. The lysate was counted in a gamma-counter, binding was calculated and the affinity determined.

[2] = biological target: T2, recombinant human MC4 receptor (Homo sapiens, UniProt P32245); experiment: Affinity for the MC4-receptors, 125I-NDP-αMSH binding assay; conditions: Sf9 or COS cells transfected with recombinant human MC4, displacement of 125I-NDP-MSH, nb = non-binding, i.e. no affinity; for Ki: read-out: Affinity for MC-receptors, Ki, MC4
T2 construct: expressed in transfected cells; host or cells: Sf9 insect cells or COS cells
Procedure: (§5) Test 2. Affinity for the MC3-receptors, the MC4receptors and the MC5-receptors
(§6) The binding assays were carried out essentially as described by Szardenings et al., J. Biol. Chem. 1997; 272; 27943-27948 and Schiöth et al., FEBS Lett. 1997; 410; 223-228 using I^125-NDP-αMSH as ligand.
as §1, §2, §3, §4

[3] = biological target: T3, recombinant human MC5 receptor (Homo sapiens, UniProt P33032); experiment: Affinity for the MC5-receptors, 125I-NDP-αMSH binding assay; conditions: Sf9 or COS cells transfected with recombinant human MC5, displacement of 125I-NDP-MSH, nb = non-binding, i.e. no affinity; for Ki: read-out: Affinity for MC-receptors, Ki, MC5
T3 construct: expressed in transfected cells; host or cells: Sf9 insect cells or COS cells
Procedure: as §5, §6, §1, §2, §3, §4

[4] = biological target: T4, recombinant human MC3 receptor (Homo sapiens, UniProt P41968); experiment: Affinity for the MC3-receptors, 125I-NDP-αMSH binding assay; conditions: Sf9 or COS cells transfected with recombinant human MC3, displacement of 125I-NDP-MSH, nb = non-binding, i.e. no affinity; for Ki: read-out: Affinity for MC-receptors, Ki, MC3
T4 construct: expressed in transfected cells; host or cells: Sf9 insect cells or COS cells
Procedure: as §5, §6, §1, §2, §3, §4

[5] = system: melanocortin receptors; experiment: Affinity/activity on melanocortin receptors (general statements); format: binding; conditions: statement in words, receptor subtype not specified

T1 sequence (Q01727 whole entry): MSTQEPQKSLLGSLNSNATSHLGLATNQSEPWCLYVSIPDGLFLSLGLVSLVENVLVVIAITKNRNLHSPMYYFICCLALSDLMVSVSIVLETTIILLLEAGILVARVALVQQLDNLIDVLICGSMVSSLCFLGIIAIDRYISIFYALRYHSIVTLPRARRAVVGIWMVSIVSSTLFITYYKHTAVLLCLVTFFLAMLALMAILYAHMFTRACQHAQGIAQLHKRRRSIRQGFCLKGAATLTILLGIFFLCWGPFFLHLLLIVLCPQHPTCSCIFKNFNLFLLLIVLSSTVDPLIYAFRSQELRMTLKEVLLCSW
T4 sequence (P41968 whole entry): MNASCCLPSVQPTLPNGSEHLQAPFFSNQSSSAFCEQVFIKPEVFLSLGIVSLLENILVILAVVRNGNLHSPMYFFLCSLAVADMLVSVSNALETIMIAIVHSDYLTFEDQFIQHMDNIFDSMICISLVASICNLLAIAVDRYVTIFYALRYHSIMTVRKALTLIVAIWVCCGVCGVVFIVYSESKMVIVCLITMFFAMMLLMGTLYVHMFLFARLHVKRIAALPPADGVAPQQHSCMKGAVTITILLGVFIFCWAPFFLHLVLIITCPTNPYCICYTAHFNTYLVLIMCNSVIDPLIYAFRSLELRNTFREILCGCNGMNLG
T2 sequence (P32245 whole entry): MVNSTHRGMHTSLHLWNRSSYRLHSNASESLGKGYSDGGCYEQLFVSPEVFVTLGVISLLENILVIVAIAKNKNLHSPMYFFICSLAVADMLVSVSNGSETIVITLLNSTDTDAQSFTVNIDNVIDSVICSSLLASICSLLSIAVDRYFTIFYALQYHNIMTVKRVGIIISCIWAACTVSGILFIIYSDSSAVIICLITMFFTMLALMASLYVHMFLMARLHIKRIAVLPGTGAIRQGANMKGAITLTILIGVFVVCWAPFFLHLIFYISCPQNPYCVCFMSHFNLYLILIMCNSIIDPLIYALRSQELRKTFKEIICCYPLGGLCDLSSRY
T3 sequence (P33032 whole entry): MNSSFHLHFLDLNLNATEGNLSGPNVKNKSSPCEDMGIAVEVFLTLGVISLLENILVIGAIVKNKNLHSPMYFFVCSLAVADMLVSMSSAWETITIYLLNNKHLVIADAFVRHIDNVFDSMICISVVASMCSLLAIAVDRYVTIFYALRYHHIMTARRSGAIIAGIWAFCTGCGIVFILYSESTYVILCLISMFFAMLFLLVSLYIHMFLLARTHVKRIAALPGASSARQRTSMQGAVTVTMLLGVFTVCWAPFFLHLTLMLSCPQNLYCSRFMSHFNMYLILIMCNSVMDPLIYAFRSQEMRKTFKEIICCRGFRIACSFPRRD

SMILES: COc1cccc(OC)c1C=NNC(=N)N (as salt: salt) [1:11, N-(2,6-Dimethoxybenzylideneamino)guanidine]
- melting point: 158 to 160 °C

SMILES: N=C(N)NN=Cc1cc(F)ccc1F (as salt: salt) [1:10, N-(2,5-Difluorobenzylideneamino)guanidine]
- melting point: 211 to 212 °C

SMILES: CCOc1cc(C=NNC(=N)N)c([N+](=O)[O-])c(C(F)(F)F)c1 (as salt: HCl) [1:5, N-(5-Ethoxy-2-Nitro-3-Trifluoromethylbenzylideneamino)guanidine]
- melting point: 92 to 98 °C

SMILES: N=C(N)NN=Cc1ccc([N+](=O)[O-])c(Cl)c1Cl [1:4, N-(2,3-Dichloro-4-Nitrobenzylideneamino)guanidine]
- Ki [1]: 3.6 µM
- Ki [2]: 12.2 µM
- Ki [3]: 10.7 µM
- Ki [4]: 10.1 µM

SMILES: N=C(N)NN=Cc1ccc([N+](=O)[O-])c(Cl)c1Cl (as salt: HCl) [1:4, N-(2,3-Dichloro-4-Nitrobenzylideneamino)guanidine]
- melting point: 258 to 262 °C

SMILES: N=C(N)NN=Cc1cccc(Cl)c1I [1:1, N-(3-Chloro-2-Iodobenzylideneamino)guanidine]
- Ki [1]: 0.5 µM
- Ki [2]: 0.01 µM
- Ki [3]: 4.9 µM
- Ki [4]: 5.8 µM

SMILES: N=C(N)NN=Cc1ccc(Br)cc1I (as salt: salt) [1:13, N-(4-Bromo-2-iodobenzylideneamino)guanidine]
- melting point: 202 to 207 °C

SMILES: N=C(N)NN=Cc1ccc(I)cc1Br (as salt: HCl) [1:9, N-(2-Bromo-4-Iodobenzylideneamino)guanidine]
- melting point: 236 to 239 °C

SMILES: N=C(N)NN=Cc1c(Br)cccc1Br (as salt: HCl) [1:6, N-(2,6-Dibromobenzylideneamino)guanidine]
- melting point: 178 to 183 °C

SMILES: N=C(N)NN=Cc1cccc(Cl)c1I (as salt: salt) [1:1, N-(3-Chloro-2-Iodobenzylideneamino)guanidine]
- melting point: 231 to 232.5 °C

SMILES: N=C(N)N/N=C/c1c(Cl)cccc1Cl [Guanobenz, Guanabenz, reference compound]
- Affinity for MC-receptors, Ki, MC1 [1]: nb
- affinity to the melanocortin receptors [5]: no affinity
- Affinity for MC-receptors, Ki, MC4 [2]: nb
- Affinity for MC-receptors, Ki, MC5 [3]: nb
- Affinity for MC-receptors, Ki, MC3 [4]: nb

SMILES: N=C(N)NN=Cc1c(Br)cccc1Br [1:6, N-(2,6-Dibromobenzylideneamino)guanidine]
- Ki [1]: 0.8 µM
- Ki [2]: 0.1 µM
- Ki [3]: 29.6 µM
- Ki [4]: 22.7 µM

SMILES: N=C(N)NN=Cc1cccc(O)c1O (as salt: salt) [1:12, N-(2,3-Dihydroxybenzylideneamino)guanidine]
- melting point: 223 to 224.5 °C
